According to patent US20250275993A1, “GLYCOSYLATION INHIBITORS AS THERAPEUTICS FOR STROKE” (The Regents of the University of California, priority 2022, published 2025):

Columns and labels:
[1] = test system: human retinal microvascular EC (hRMECs); assay: hRMEC proliferation assay; format: cell-based
Method: Proliferation assays with BCECs and BRECs were performed. Log-phase growing BCECs or BRECs (passage <10) were trypsinized, re-suspended and seeded in 96-well plates (no coating) in low-glucose DMEM supplemented with 10% bovine calf serum, 2 mM glutamine, and antibiotics (growth medium), at a density of 1200-1500 cells per well in 200 μl volume. All reagents were added at the indicated final concentrations. After 3-6 days, cells were incubated with AlamarBlue for 4 hrs. Fluorescence was measured at 530 nm excitation wavelength and 590 nm emission wavelength. The experiments were repeated at least three times. To create a hypoxic condition, cells were placed in a hypoxia incubator with a mixture of gas consisting of 1% O2, 5% CO2 and 94% N2. On each 96-well plate, untreated and VEGF-treated (10/ng/ml) wells were included to monitor plate-to-plate variations. 20% methanol or 0.05% DMSO served as negative controls. […] Human RMVECs and human adult DMVECs were split into Gelatin-coated 96 wells (2000 cells per well) in low glucose DMEM containing 10% FBS. 1200 cells/well was set up for proliferation assay in low glucose media containing 0.5% FBS. Data was collected at day 4 or 5. HUVEC (p7-10) were grown on gelatin-coated plate until it reached 70-80% confluency.

A673 = A673 proliferation assay; format: cell-based; conditions: ManN
Method: Proliferation assays with fibroblasts were done in low-glucose DMEM containing 1% FBS, with or without 10 ng/ml bFGF, or 100 ng/ml human EGF and the assay was ended at day 3. ARPE-19 cells were gently lifted with 0.025% trypsin and plated in RtEGM media (Clonetics) containing 2% FBS, L-glutamine, human bFGF and GA-1000. Once cells were attached to plates, serum-free RtEGM media was used to maintain the cultures. For proliferation assays, 1500 human RPE cells were plated into 96-well plates in low-glucose DMEM containing 1% FBS. A673, U87MG, Calu6 and AML12 cells were grown until confluent and were then harvested and re-suspended in appropriate assay media. For proliferation assays, cells were plated at the density of 1000-2000 cells/well in low-glucose DMEM containing 5% FBS or otherwise stated. Bovine pituitary cells (pituitary folliculostellate cells) were isolated as previously described. For proliferation assays with human epidermal keratinocytes, human DMVECs and human dermal fibroblast cells, 1000 cells/well were plated in low-glucose DMEM containing 1% FBS with or without various growth factors. The assay was ended at day 3 for bovine pituitary cells and at day 4 for all the other cell types. […] Four days later, tumor cell growth was measured by the MTS assay (Promega, Madison, WI), a colorimetric assay that measures metabolic activity of viable cells. […]

N[C@H](C=O)[C@@H](O)[C@H](O)[C@H](O)CO [ManN, 2-Amino-2-deoxy-D-mannose]
toxicity on hRMECs ([1]; 5 mM ManN): minimal toxicity
additivity with VEGF on hRMEC proliferation ([1]; with VEGF): dose-dependent additivity with VEGF
growth of A673 (A673): did not promote growth
